{"source": "ChEMBL document CHEMBL5465560", "about": "“Selectivity Literature for EUbOPEN Chemogenomic Library” (2024)", "key": {"[1]": {"target": "T1, Tyrosine-protein kinase ZAP-70 (Homo sapiens) (UniProt P43403)", "T1 sequence (whole entry)": "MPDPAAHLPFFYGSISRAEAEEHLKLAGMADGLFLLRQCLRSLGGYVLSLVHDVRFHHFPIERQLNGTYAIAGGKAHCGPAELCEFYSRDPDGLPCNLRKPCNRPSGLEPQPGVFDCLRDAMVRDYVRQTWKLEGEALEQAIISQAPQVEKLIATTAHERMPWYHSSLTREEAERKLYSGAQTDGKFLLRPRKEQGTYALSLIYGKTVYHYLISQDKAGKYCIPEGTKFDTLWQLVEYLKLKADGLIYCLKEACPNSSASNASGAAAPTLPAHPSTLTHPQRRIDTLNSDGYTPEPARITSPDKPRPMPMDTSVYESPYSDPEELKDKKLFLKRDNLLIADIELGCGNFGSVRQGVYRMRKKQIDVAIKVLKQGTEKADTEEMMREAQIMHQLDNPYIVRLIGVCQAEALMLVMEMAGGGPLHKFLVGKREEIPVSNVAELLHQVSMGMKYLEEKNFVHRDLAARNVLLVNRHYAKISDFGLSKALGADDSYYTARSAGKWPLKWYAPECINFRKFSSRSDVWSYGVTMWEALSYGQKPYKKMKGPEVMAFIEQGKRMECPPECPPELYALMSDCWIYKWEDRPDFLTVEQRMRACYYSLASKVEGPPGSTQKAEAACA", "test": "Selectivity interaction (ActivX KiNativ screen (ex vivo kinase selectivity in human PBMCs)) EUB0001619a ZAP70", "format": "cell-based", "conditions": "PBMC, at 1 µM"}, "[2]": {"target": "Cyclin-dependent kinase 9 (Homo sapiens, UniProt P50750)", "sequence (P50750 whole entry)": "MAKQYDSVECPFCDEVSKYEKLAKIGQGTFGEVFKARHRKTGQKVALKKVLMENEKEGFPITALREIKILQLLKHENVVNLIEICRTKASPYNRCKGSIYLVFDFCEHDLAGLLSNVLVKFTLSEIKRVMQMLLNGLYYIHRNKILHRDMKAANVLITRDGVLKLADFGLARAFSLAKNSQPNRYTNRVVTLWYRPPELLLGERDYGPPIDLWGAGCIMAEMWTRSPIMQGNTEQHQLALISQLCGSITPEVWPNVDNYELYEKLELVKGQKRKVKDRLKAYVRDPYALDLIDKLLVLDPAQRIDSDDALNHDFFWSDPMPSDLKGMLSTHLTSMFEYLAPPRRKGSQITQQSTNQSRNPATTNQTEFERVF", "test": "Selectivity interaction (Z-Lyte kinase biochemical assay, conc. ATP = Km(app), Thermo Fisher Scientific) EUB0001558a CDK9"}, "[3]": {"target": "T2, Serine/threonine-protein kinase ULK1 (Homo sapiens) (UniProt O75385)", "T2 sequence (whole entry)": "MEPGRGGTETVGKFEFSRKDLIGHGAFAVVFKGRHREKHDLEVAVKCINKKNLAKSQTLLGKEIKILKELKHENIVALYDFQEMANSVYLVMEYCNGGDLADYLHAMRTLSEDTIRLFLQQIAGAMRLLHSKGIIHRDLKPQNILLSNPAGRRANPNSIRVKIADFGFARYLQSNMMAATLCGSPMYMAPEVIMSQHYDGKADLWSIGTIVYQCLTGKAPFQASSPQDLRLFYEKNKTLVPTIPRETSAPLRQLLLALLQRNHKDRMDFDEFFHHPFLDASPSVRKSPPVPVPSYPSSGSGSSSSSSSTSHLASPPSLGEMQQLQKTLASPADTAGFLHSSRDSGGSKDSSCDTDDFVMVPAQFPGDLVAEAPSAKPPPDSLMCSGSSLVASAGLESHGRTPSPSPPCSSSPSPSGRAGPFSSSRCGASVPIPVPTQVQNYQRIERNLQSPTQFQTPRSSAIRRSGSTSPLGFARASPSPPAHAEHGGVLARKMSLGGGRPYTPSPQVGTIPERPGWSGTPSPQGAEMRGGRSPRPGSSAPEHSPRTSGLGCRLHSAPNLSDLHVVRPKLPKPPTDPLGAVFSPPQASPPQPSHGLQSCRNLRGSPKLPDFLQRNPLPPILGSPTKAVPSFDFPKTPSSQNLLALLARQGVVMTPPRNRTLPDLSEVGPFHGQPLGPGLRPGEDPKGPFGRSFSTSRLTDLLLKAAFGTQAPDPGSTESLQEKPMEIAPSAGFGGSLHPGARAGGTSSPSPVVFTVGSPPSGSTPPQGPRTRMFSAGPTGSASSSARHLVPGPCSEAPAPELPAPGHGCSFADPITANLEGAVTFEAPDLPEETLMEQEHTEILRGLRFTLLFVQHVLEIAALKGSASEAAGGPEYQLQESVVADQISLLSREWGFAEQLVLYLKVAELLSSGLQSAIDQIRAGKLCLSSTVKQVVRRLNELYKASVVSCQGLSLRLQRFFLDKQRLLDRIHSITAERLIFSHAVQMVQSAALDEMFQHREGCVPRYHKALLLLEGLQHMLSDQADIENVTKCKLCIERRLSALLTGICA", "test": "Selectivity interaction (ActivX KiNativ screen (kinase selectivity in THP-1 cell lysates)) EUB0000639a ULK1", "format": "subcellular", "conditions": "lysate, at 0.04 µM"}, "[4]": {"target": "T3, Mitogen-activated protein kinase kinase kinase 2 (Homo sapiens) (UniProt Q9Y2U5)", "T3 sequence (whole entry)": "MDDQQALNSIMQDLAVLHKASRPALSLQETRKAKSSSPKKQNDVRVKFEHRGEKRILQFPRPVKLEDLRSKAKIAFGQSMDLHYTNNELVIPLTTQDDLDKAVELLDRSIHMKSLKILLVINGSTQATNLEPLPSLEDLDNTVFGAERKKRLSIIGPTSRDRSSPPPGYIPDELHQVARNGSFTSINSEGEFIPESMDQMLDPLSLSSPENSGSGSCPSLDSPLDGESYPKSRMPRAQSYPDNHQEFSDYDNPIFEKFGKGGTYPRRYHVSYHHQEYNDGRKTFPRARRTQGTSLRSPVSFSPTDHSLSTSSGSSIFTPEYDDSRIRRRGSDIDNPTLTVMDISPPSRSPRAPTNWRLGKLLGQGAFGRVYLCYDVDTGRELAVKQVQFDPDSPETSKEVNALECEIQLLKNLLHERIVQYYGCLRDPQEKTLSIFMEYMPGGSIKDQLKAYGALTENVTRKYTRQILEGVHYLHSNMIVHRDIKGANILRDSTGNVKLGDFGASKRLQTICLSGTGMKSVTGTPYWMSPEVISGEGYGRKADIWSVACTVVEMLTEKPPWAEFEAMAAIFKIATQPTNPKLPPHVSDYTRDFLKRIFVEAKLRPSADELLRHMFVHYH", "test": "Selectivity interaction (ActivX KiNativ screen (kinase selectivity in THP-1 cell lysates)) EUB0000639a MAP3K2", "format": "subcellular", "conditions": "lysate, at 0.01 µM"}}, "note": "pIC50: −log10 of the molar value."}
{"smiles": "N#Cc1cccc(-c2c[nH]c3ncnc(N4CCOCC4)c23)c1", "values": [{"measurement": "% of inhibition", "setting": "[1]", "result": 7, "unit": "%"}]}
{"smiles": "CC(C)(O)[C@H](F)CN1Cc2cc(NC(=O)c3cnn4cccnc34)c(N3CCOCC3)cc2C1=O", "values": [{"measurement": "pIC50", "setting": "[2]", "result": 6.02}]}
{"smiles": "CC[C@@H]1[C@H](F)C(=O)N[C@@H]1COc1nccc2cc(C(N)=O)c(OC)cc12", "note": "[ZIMLOVISERTIB]", "values": [{"measurement": "% of inhibition", "setting": "[3]", "result": -12.7, "unit": "%"}, {"measurement": "% of inhibition", "setting": "[4]", "result": 8.7, "unit": "%"}]}
